# Assay results: US20250295628A1 (priority 2022, published 2025)
# Test system: chronic cadmium poisoning model rabbits
# Assay: Cadmium-removing effect by intravenous drip in chronic cadmium poisoning rabbits (Example 18)
# Type: in vivo, New Zealand rabbits
# Conditions: for Urine β2-microglobulin values: after four weeks of administration
# Excerpt: 205 male New Zealand rabbits, 1.8˜2.2 kg, were randomly divided into a blank control group with 25 rabbits and chronic cadmium poisoning groups with a total of 180 rabbits. The model rabbits were ear margin intravenous injected with a mixed solution containing 1.5 μmol/kg CdCl2 and 30 μmol/kg thioethanol (ME) according to weight, once/d for continuous 5 days, and observed for 35 days. After 35 days, qualified rabbits were selected according to weight, including 18 rabbits in the blank group and 162 rabbits in the poisoning group. The 162 rabbits in the poisoning group were randomly divided into a model group, D3 high-dose group, D3 low-dose group, compound 3B high-dose group, compound 3B low-dose group, composition 3 high-dose group, composition 3 low-dose group, composition 3-powder injection high-dose group, composition 3-powder injection low-dose group, with 18 rabbits in each group. Rabbits in the mode group and the blank group were administered by intravenous drip with the same volume of normal saline, with a rate of 30 drops/min for a dripping time of about 2 h, 1 time/d, 5 d/week. After administration on the last day of week 1, week 2 and week 4, the urine of 0 h˜6 h and the urine of 7 h˜24 h of rabbits were respectively collected; the content of cadmium in blood, urine and kidney, and the cadmium-removing rate from blood and kidney were determined, and the results are shown in Table 6.
# [1] = 1 w of treatment, high-dose group (D3 433, compound 3B 83.5, composition 3 and composition 3-preparation 108 mg/kg)
# [2] = 1 w of treatment, low-dose group (D3 108, compound 3B 21, composition 3 and composition 3-preparation 27 mg/kg)
# [3] = 2 w of treatment, high-dose group (D3 433, compound 3B 83.5, composition 3 and composition 3-preparation 108 mg/kg)
# [4] = 2 w of treatment, low-dose group (D3 108, compound 3B 21, composition 3 and composition 3-preparation 27 mg/kg)
# [5] = 4 w of treatment, high-dose group (D3 433, compound 3B 83.5, composition 3 and composition 3-preparation 108 mg/kg)
# [6] = 4 w of treatment, low-dose group (D3 108, compound 3B 21, composition 3 and composition 3-preparation 27 mg/kg)
compound,measurement,setting,value
CSCCC(NCC(O)C(O)C(O)C(O)CO)C(=O)[O-].[Na+] (stereo not drawn) [Compound 3B],Cadmium in blood,[1],101.54 ± 13.27 µg/L
same,Cadmium in kidney,[1],11.94 ± 3.51 µg/L
same,Cadmium in blood,[2],102.21 ± 16.38 µg/L
same,Cadmium in kidney,[2],12.03 ± 3.84 µg/L
same,Cadmium in blood,[3],73.18 ± 15.27 µg/L
same,Cadmium in kidney,[3],12.62 ± 5.37 µg/L
same,Cadmium in blood,[4],72.02 ± 16.92 µg/L
same,Cadmium in kidney,[4],12.57 ± 3.37 µg/L
same,Cadmium in blood,[5],27.92 ± 14.72 µg/L
same,Cadmium in kidney,[5],14.02 ± 2.96 µg/L
same,Cadmium in blood,[6],28.53 ± 12.62 µg/L
same,Cadmium in kidney,[6],13.22 ± 4.20 µg/L
same,cadmium-removing effect (compared with the model group),"21 and 83.5 mg/kg, 1-4 weeks",no cadmium-removing effect
same,Urine β2-microglobulin values,"high-dose group (D3 433, compound 3B 83.5, composition 3 and composition 3-preparation 108 mg/kg)",209.42 ± 38.21 ng/L
same,Urine β2-microglobulin values,"low-dose group (D3 108, compound 3B 21, composition 3 and composition 3-preparation 27 mg/kg)",213.56 ± 31.76 ng/L
